{"source": "BindingDB's records for patent US20250074919", "about": "(Accro Bioscience (HK), 2025)", "molecular_target": "T1, Interleukin-1 receptor-associated kinase 4 (Homo sapiens, UniProt Q9NWZ3)", "T1 sequence (Q9NWZ3 whole entry)": "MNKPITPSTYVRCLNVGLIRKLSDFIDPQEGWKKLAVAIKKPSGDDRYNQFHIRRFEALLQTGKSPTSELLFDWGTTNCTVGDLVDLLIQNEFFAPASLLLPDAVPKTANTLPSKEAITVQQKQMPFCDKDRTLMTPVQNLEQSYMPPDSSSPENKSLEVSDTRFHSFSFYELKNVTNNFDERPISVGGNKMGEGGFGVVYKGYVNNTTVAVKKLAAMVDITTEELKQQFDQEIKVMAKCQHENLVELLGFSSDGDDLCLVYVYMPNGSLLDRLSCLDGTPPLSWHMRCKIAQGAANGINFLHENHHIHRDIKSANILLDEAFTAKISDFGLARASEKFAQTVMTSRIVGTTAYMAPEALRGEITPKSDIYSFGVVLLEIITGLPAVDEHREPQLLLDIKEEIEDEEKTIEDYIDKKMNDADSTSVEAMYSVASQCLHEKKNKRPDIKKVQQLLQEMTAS", "experiment": "Screening Assay Against IRAK4 with ATP", "procedure": "Then prepare compounds for testing: Dilute the compound to 50× of the final desired highest inhibitor concentration in reaction by 100% DMSO. […] Transfer 10 μL of the compound from the source plate to a new 96-well plate (intermediate plate) and add 90 μL of Ix kinase buffer. Shake the mixture on the intermediate plate for 10 min. Transfer 5 μL of each well from the 96-well intermediate plate to a 384-well plate in duplicates. Add 10 μL of 2.5× enzyme solution to each well of the 384-well assay plate and incubate at room temperature for 10 min. Add 10 μL, of 2.5×FAM-labeled peptide and ATP solution and incubate at 28° C. for a period of time.", "data": [{"smiles": "Cn1cc(-c2cccc(NC(=O)c3cc4oc(N5CCOCC5)nc4nc3N3CCOCC3)n2)cn1", "note": "[US20250074919, Example A2]", "values": [{"measurement": "IC50", "result": 45, "unit": "nM"}]}]}
